Where two headings read alike, the source gives them in different places. Starred links: 1 amine or outer side, 2 acyl side, 3 side chain; linkers in the order of their positions; H or OH if unused. Positions of bridges follow the written chain, without caps; N, C: chain ends. Non-standard residues stand in square brackets, D forms with d. Residues, ends and D or L forms follow the SMILES beside them. *: point of attachment. NMeAla(4-thiazolyl) = CN[C@@H](Cc1cscn1)C(=O)O; Ala(4-thiazolyl) = N[C@@H](Cc1cscn1)C(=O)O; NMeF = CN[C@@H](Cc1ccccc1)C(=O)O; NMeβAla = CN(CCC(=O)[*:2])[*:1]; NMeL = CN[C@@H](CC(C)C)C(=O)O; NMeV = CN[C@H](C(=O)O)C(C)C; NMeA = CN[C@@H](C)C(=O)O; Piperidide = C1CCN(*)CC1; Sar = CNCC(=O)O; tBu = CC(C)(C)*
Test: Caco-2 membrane permeability, improved method as used in the following Examples (96-well, 20 to 24 h preincubation)
Format: in vitro ADME
Conditions: human
Outline: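 Caco-2 monolayers were grown three weeks and preincubated 20–24 h at 37 °C with compound in DMEM+FaSSIF (1% DMSO) apically. The assay then used compound in FaSSIF/HBSS (1% DMSO, pH 6.0) apically and HBSS with 4% BSA (pH 7.4) basally. Basal samples were taken at 180 min for LC/MS, and Papp (cm/sec) was calculated.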

| Compound | Papp A→B at 180 min (Caco-2, Caco-2 (cm/sec)) [×10⁻⁶ cm/s] | Papp A→B at 180 min (Caco-2, Papp, Table 24, sequences where ARC = 4, read-out: Caco-2) [×10⁻⁶ cm/s] |
| --- | --- | --- |
| CC(C)C[C@@H]1NC(=O)[C@H](Cc2ccccc2)N(C)C(=O)C[C@@H](C(=O)N2CCCCC2)NC(=O)[C@H](CC(C)C)N(C)C(=O)CN(C)C(=O)[C@H]([C@@H](C)O)NC(=O)[C@H](Cc2ccccc2)N(C)C(=O)[C@H](Cc2ccccc2)N(C)C(=O)[C@H](CC(C)C)NC(=O)[C@H](Cc2ccccc2)N(C)C(=O)[C@H](CC(C)C)N(C)C1=O [pd227] ([NMeF]L[NMeL][NMeF]L[NMeF][NMeF]T[Sar][NMeL]D-Piperidide; lactam N-11) | 0.61 |  |
| CC(C)C[C@@H]1NC(=O)[C@H](CC(C)C)N(C)C(=O)C[C@@H](C(=O)N2CCCCC2)NC(=O)[C@H](CC(C)C)N(C)C(=O)CN(C)C(=O)[C@H]([C@@H](C)O)NC(=O)[C@H](Cc2cscn2)N(C)C(=O)[C@H](Cc2ccccc2)N(C)C(=O)[C@H](Cc2ccccc2)NC(=O)[C@H](Cc2ccccc2)N(C)C(=O)[C@H](CC(C)C)N(C)C1=O [pd228] ([NMeL]L[NMeL][NMeF]F[NMeF][NMeAla(4-thiazolyl)]T[Sar][NMeL]D-Piperidide; lactam N-11) | 0.58 |  |
| CC(C)C[C@@H]1NC(=O)[C@H](Cc2ccccc2)N(C)C(=O)[C@H](C(C)C)N(C)C(=O)C[C@@H](C(=O)N2CCCCC2)NC(=O)[C@H]([C@@H](C)O)NC(=O)[C@H](Cc2ccccc2)N(C)C(=O)[C@H](Cc2ccccc2)NC(=O)[C@H](Cc2ccccc2)N(C)C(=O)CN(C)C(=O)[C@H](C)N(C)C(=O)[C@H](CC(C)C)N(C)C1=O [pd229] ([NMeV][NMeF]L[NMeL][NMeA][Sar][NMeF]F[NMeF]TD-Piperidide; lactam N-11) | 0.41 |  |
| CC(C)C[C@@H]1NC(=O)[C@H](Cc2ccccc2)N(C)C(=O)[C@H]([C@@H](C)O)NC(=O)[C@H](Cc2ccccc2)NC(=O)[C@H](Cc2ccccc2)N(C)C(=O)C[C@@H](C(=O)N2CCCCC2)NC(=O)[C@H](C)N(C)C(=O)[C@H](CC(C)C)N(C)C(=O)CN(C)C(=O)[C@H](CC(C)C)N(C)C(=O)[C@H](Cc2ccccc2)N(C)C1=O [pd230] ([NMeF]FT[NMeF]L[NMeF][NMeL][Sar][NMeL][NMeA]D-Piperidide; lactam N-11) | 0.25 |  |
| CC(C)C[C@@H]1NC(=O)[C@H](Cc2ccccc2)N(C)C(=O)[C@H]([C@@H](C)O)NC(=O)[C@H](Cc2ccccc2)N(C)C(=O)CN(C)C(=O)[C@H](Cc2ccccc2)NC(=O)[C@H](CC(C)C)N(C)C(=O)[C@H](CC(C)C)NC(=O)[C@H](Cc2ccccc2)N(C)C(=O)[C@H](C)N(C)C(=O)C[C@@H](C(=O)N2CCCCC2)NC1=O [pd231] ([NMeA][NMeF]L[NMeL]F[Sar][NMeF]T[NMeF]LD-Piperidide; lactam N-11) | 0.21 |  |
| CC(C)C[C@H]1C(=O)N(C)[C@@H](Cc2ccccc2)C(=O)N(C)[C@@H](Cc2ccccc2)C(=O)N[C@@H]([C@@H](C)O)C(=O)N(C)[C@@H](C)C(=O)N(C)[C@@H](Cc2ccccc2)C(=O)N[C@H](C(=O)N2CCCCC2)CC(=O)N(C)[C@@H](C)C(=O)N(C)[C@@H](CC(C)C)C(=O)N(C)[C@@H](Cc2ccccc2)C(=O)N[C@@H](C)C(=O)N1C [pd232] ([NMeA][NMeL][NMeF]A[NMeL][NMeF][NMeF]T[NMeA][NMeF]D-Piperidide; lactam N-11) | 0.19 |  |
| CC(C)C[C@H]1C(=O)N(C)[C@@H](Cc2ccccc2)C(=O)N(C)[C@@H](Cc2ccccc2)C(=O)N[C@@H]([C@@H](C)O)C(=O)N(C)[C@@H](C)C(=O)N(C)[C@@H](Cc2ccccc2)C(=O)N[C@H](C(=O)N2CCCCC2)CC(=O)N(C)[C@@H](C)C(=O)N(C)[C@@H](Cc2ccccc2)C(=O)N(C)[C@@H](CC(C)C)C(=O)N[C@@H](C(C)C)C(=O)N1C [pd233] ([NMeA][NMeF][NMeL]V[NMeL][NMeF][NMeF]T[NMeA][NMeF]D-Piperidide; lactam N-11) | 0.17 |  |
| CC(C)C[C@@H]1NC(=O)[C@H](CC(C)C)N(C)C(=O)[C@@H](C)NC(=O)C[C@@H](C(=O)N2CCCCC2)NC(=O)[C@H](Cc2ccccc2)N(C)C(=O)[C@H](Cc2ccccc2)N(C)C(=O)[C@H](C)N(C)C(=O)[C@H]([C@@H](C)O)NC(=O)[C@H](Cc2ccccc2)N(C)C(=O)[C@H](COC(C)(C)C)NC(=O)[C@H](Cc2ccccc2)N(C)C1=O [pd234] ([dA][NMeL]L[NMeF]S(tBu)[NMeF]T[NMeA][NMeF][NMeF]D-Piperidide; lactam N-11) | 0.15 |  |
| CC(C)C[C@@H]1NC(=O)[C@H](CC(C)C)N(C)C(=O)[C@H](CC(C)C)N(C)C(=O)CNC(=O)[C@H](Cc2ccccc2)N(C)C(=O)[C@H](Cc2cscn2)NC(=O)[C@H](CC(C)C)N(C)C(=O)[C@H](Cc2ccccc2)NC(=O)[C@H](C)NC(=O)C[C@@H](C(=O)N(C)[C@@H](Cc2ccccc2)C(=O)N[C@@H](C)C(=O)N2CCCCC2)NC1=O [pd235] (AF[NMeL][Ala(4-thiazolyl)][NMeF]G[NMeL][NMeL]LD[NMeF]A-Piperidide; lactam N-10) | 0.1 |  |
| CC(C)C[C@@H]1NC(=O)[C@H](C)N(C)C(=O)C[C@@H](C(=O)N2CCCCC2)NC(=O)[C@H](CC(C)C)N(C)C(=O)CN(C)C(=O)[C@H]([C@@H](C)O)NC(=O)[C@H](Cc2cscn2)N(C)C(=O)[C@H](Cc2ccccc2)N(C)C(=O)[C@H](Cc2ccccc2)NC(=O)[C@H](Cc2ccccc2)NC(=O)[C@H](CC(C)C)N(C)C1=O [pd236] ([NMeA]L[NMeL]FF[NMeF][NMeAla(4-thiazolyl)]T[Sar][NMeL]D-Piperidide; lactam N-11) |  | 0.096 |
| CC(C)C[C@H]1C(=O)N[C@@H](COC(C)(C)C)C(=O)N[C@@H]([C@@H](C)O)C(=O)N(C)[C@@H](Cc2ccccc2)C(=O)N[C@H](C(=O)N2CCCCC2)CC(=O)N[C@@H](C)C(=O)N(C)[C@@H](Cc2ccccc2)C(=O)N(C)[C@@H](C)C(=O)N(C)[C@@H](Cc2ccccc2)C(=O)N(C)[C@@H](CC(C)C)C(=O)N[C@@H](Cc2ccccc2)C(=O)N1C [pd237] (A[NMeF][NMeA][NMeF][NMeL]F[NMeL]S(tBu)T[NMeF]D-Piperidide; lactam N-11) | 0.089 |  |
| CC(C)C[C@@H]1NC(=O)[C@H](Cc2ccccc2)N(C)C(=O)[C@H](C)N(C)C(=O)C[C@@H](C(=O)N2CCCCC2)NC(=O)[C@H](CC(C)C)N(C)C(=O)[C@H](Cc2ccccc2)N(C)C(=O)[C@H](Cc2ccccc2)NC(=O)[C@H](Cc2cscn2)N(C)C(=O)[C@H](C)N(C)C(=O)[C@H](CC(C)C)N(C)C(=O)[C@H]([C@@H](C)O)NC1=O [pd238] ([NMeA][NMeF]LT[NMeL][NMeA][NMeAla(4-thiazolyl)]F[NMeF][NMeL]D-Piperidide; lactam N-11) | 0.088 |  |
| CC[C@H](C)[C@@H]1NC(=O)[C@H](Cc2ccccc2)N(C)C(=O)[C@H](C)N(C)C(=O)[C@H](CC(C)C)N(C)C(=O)[C@H](Cc2ccccc2)N(C)C(=O)CCN(C)C(=O)C[C@@H](C(=O)N(C)[C@@H](Cc2ccccc2)C(=O)N(C)[C@@H](Cc2ccccc2)C(=O)N[C@@H](C)C(=O)N2CCCCC2)NC(=O)[C@H]([C@@H](C)O)NC(=O)[C@H](CC(C)C)N(C)C(=O)[C@H](CC(C)C)N(C)C1=O [pd239] ([NMeβAla][NMeF][NMeL][NMeA][NMeF]I[NMeL][NMeL]TD[NMeF][NMeF]A-Piperidide; lactam N-10) | 0.065 |  |
| CC[C@H](C)[C@@H]1NC(=O)[C@H](Cc2ccccc2)N(C)C(=O)[C@H](C)N(C)C(=O)C[C@@H](C(=O)N(C)[C@@H](Cc2ccccc2)C(=O)N(C)[C@@H](Cc2ccccc2)C(=O)N[C@@H](C)C(=O)N2CCCCC2)NC(=O)[C@H](CC(C)C)N(C)C(=O)[C@H](Cc2ccccc2)N(C)C(=O)[C@H]([C@@H](C)O)NC(=O)[C@H](CC(C)C)N(C)C(=O)[C@H](CC(C)C)N(C)C(=O)[C@H](C)N(C)C1=O [pd240] ([NMeA][NMeF]I[NMeA][NMeL][NMeL]T[NMeF][NMeL]D[NMeF][NMeF]A-Piperidide; lactam N-10) | 0.06 |  |
| CC(C)C[C@H]1C(=O)N(C)[C@@H](Cc2ccccc2)C(=O)N(C)[C@@H](CC(C)C)C(=O)N[C@H](C(=O)N(C)[C@@H](Cc2ccccc2)C(=O)N[C@@H](Cc2ccccc2)C(=O)N2CCCCC2)CC(=O)N[C@@H](C(C)C)C(=O)N[C@@H](C)C(=O)N[C@@H]([C@@H](C)O)C(=O)N(C)[C@@H](C)C(=O)N[C@@H](Cc2ccccc2)C(=O)N1C [pd241] (VAT[NMeA]F[NMeL][NMeF][NMeL]D[NMeF]F-Piperidide; lactam N-9) | 0.058 |  |
| CC[C@H](C)[C@@H]1NC(=O)[C@H](Cc2ccccc2)N(C)C(=O)[C@H]([C@@H](C)O)NC(=O)[C@@H](C)NC(=O)C[C@@H](C(=O)N(C)[C@@H](Cc2ccccc2)C(=O)N(C)[C@@H](Cc2ccccc2)C(=O)N[C@@H](C)C(=O)N2CCCCC2)NC(=O)[C@H](CC(C)C)N(C)C(=O)[C@H](CC(C)C)N(C)C(=O)[C@H](Cc2ccccc2)N(C)C(=O)[C@H](CC(C)C)N(C)C(=O)[C@H](C)N(C)C1=O [pd242] ([dA]T[NMeF]I[NMeA][NMeL][NMeF][NMeL][NMeL]D[NMeF][NMeF]A-Piperidide; lactam N-10) | 0.058 |  |
| CC(C)C[C@@H]1NC(=O)[C@H](Cc2ccccc2)N(C)C(=O)[C@H](COC(C)(C)C)NC(=O)[C@H](Cc2ccccc2)N(C)C(=O)[C@H](Cc2ccccc2)N(C)C(=O)[C@H](CC(C)C)N(C)C(=O)[C@@H](CC(C)C)NC(=O)C[C@@H](C(=O)N2CCCCC2)NC(=O)[C@H](Cc2ccccc2)N(C)C(=O)[C@H]([C@@H](C)O)NC(=O)[C@H](CC(C)C)N(C)C1=O [pd243] ([dL][NMeL][NMeF][NMeF]S(tBu)[NMeF]L[NMeL]T[NMeF]D-Piperidide; lactam N-11) | 0.057 |  |
| CC(C)C[C@@H]1NC(=O)[C@H](Cc2ccccc2)N(C)C(=O)[C@H](CC(C)C)N(C)C(=O)[C@H](Cc2ccccc2)NC(=O)[C@@H](C)NC(=O)C[C@@H](C(=O)N2CCCCC2)NC(=O)[C@H](Cc2ccccc2)N(C)C(=O)CN(C)C(=O)[C@H](Cc2ccccc2)NC(=O)[C@H](CC(C)C)N(C)C(=O)[C@H]([C@@H](C)O)NC1=O [pd244] ([dA]F[NMeL][NMeF]LT[NMeL]F[Sar][NMeF]D-Piperidide; lactam N-11) | 0.045 |  |

From patent US20200131669A1, “CYCLIC PEPTIDE COMPOUND HAVING HIGH MEMBRANE PERMEABILITY, AND LIBRARY CONTAINING SAME” (Chugai Seiyaku Kabushiki Kaisha, priority 2017, published 2020)
